Paper PMC10906223 (JCI Insight, 2024)
Where “and” joins values, the source holds several entries; their conditions need not be identical. Equal values may be shown once. Entries after “also recorded” stand apart in the source; their conditions may differ.

What was measured:
[1] = Plasma stability assay, CD-1 mouse plasma; format: in vitro ADME; conditions: for Ln (% Remaining): mouse plasma, 37°C, Figure 5B
Procedure: Pooled frozen plasma of CD-1 mice (n = 20; catalog MSE00PLK2M2N, Beijing Vital River Laboratory Animal Technology) or humans (n = 6, catalog […]2P2N, Bioreclamation IVT), equal numbers of males and females, was thawed in a 37°C water bath, and residual clots were removed by centrifugation (500g for 5 minutes). Plasma (98 μL) was aliquoted in each well of 96-well reaction plates using an Apricot automation workstation. WCDD301 (100 μM) or propantheline bromide (100 μM, as a positive control) was added (2 μL/well) to sets of wells assigned to blank or time points (T0, T10, T30, T60, and T120 minutes) and incubated at 37°C. At each time point, the reaction was stopped by adding stop solution (500 μL; a mixture of 200 ng/mL of tolbutamide and labetalol in acetonitrile), mixed thoroughly, sealed, shaken (20 minutes), and centrifuged (1,750g, 4°C, 20 minutes). A total of 150 μL of the supernatant from each well of the reaction plate was transferred to its corresponding bioanalysis plate for LC-MS/MS analysis. The remaining level (%) of the WCDD301 was calculated using the following equation: remaining (%) = (PAR at each time point/PAR at T0) × 100. PAR stands for the peak area ratio of the WCDD301 versus internal standard.

diabetic NOD mice [2] = assay: Blood glucose in diabetic NOD mice, once-daily oral WCDD301 in SAIB-Agar; format: in vivo, mouse; parameters: Blood glucose: unit: mg/dL; conditions: for Blood glucose: oral 7.5 mg/kg once daily, per mouse, Figure 6A, 7.5 mg/kg
Procedure: For the polygenic model for T1D (the Jackson Laboratory), 10 cohorts of independent NOD/shiLTJ mice (each 10, equal numbers of females and males) were purchased at 7–9 weeks old. Blood glucose levels were monitored twice a week using a glucometer (Glucocard Vital) to find those mice at risk of diabetes. Diabetes was confirmed when the blood glucose levels remained at 200–250 mg/dL for 3 consecutive days. This profile of the blood glucose level is referred to as moderate hyperglycemia.
We prepared sustained time-release pearls for oral administration in the mouse models. To this end, we combined FDA-approved excipients of Eastman BioSustane SAIB NF (product code: 41271-00, sample distribution from Eastman Company, Kingsport, Tennessee, USA; provided by Phillip Cook) and Agar (Lamda Biotech, catalog C110) at the ratio of 1:1.45 (w/w). We also prepared another type of sustained time-release pearl by mixing SAIB, Agar, and L (-) malic acid (MilliporeSigma, catalog 202-601-5) at the ratio of 1:1.4:0.2 (w/w/w). A homogenous paste mixture was prepared, and pearls were formed with 50–60 mg weight and approximately 2 mm diameter by pinching off the mixture and manually rolling.
(§1) We preweighed WCDD301 into microfuge tubes and reconstituted it using deionized water. Using a 10 μL pipette tip, we placed the calculated dose of WCDD301 (at the volume range of 1–1.5 μL) within the center of pearls. WCDD301 was placed into pearls 30–45 minutes before administration. For oral administration of pearls, we designed an applicator using a disposable plastic transfer pipette and syringe plunger lubricated with olive oil. Food intake and body weight in each experimental group (diabetic WCDD301-treated, diabetic placebo-treated, and nondiabetic placebo-treated NOD mice) were monitored daily for 4 weeks. Urine glucose was measured from individually caged NOD mice (nondiabetic placebo treated n = 2, diabetic placebo treated n = 2, and diabetic WCDD301 treated n = 4, 21–23 weeks old) with metabolic cages. Urine glucose was monitored every 24 hours for 10 days by semiquantitative measurements (P-STICKS, Millpledge Veterinary).
We applied the following therapeutic regimens in the fed state for oral dosing of pearls containing WCDD301. The therapeutic regimen for diabetic NOD mice with moderate hyperglycemia (n = 6–9; 6 females/3 males) or nondiabetic ones with blood glucose levels of < 140 mg/dL (females, n = 5) was dose 7.5 mg/kg, dosage once a day, and excipient SAIB-Agar, 50–60 mg. The therapeutic regimen for STZ-induced diabetic mice with early severe hyperglycemia (n = 3, placebo group; n = 4 treatment group, females) was dose 10 mg/kg, dosage once a day, and excipient SAIB-Agar-malic acid, 50–60 mg.

diabetic NOD mice [3] = assay: Daily body weight in NOD mice; format: in vivo, mouse; conditions: for Daily body weight (Figure 7F): Diabetic, WCDD301 treated, in g (unit assumed)
Procedure: as §1

## CC(=O)OCC(N)(COC(C)=O)COC(C)=O [WCDD301, 2-(acetoxymethyl)-2-aminopropane-1,3-diyl diacetate]
[1]; both sexes, CD-1, mouse, plasma
  half-life at 2 µM: 1.75 h
[1]; 10 min
  Ln (% Remaining): -0.4
[1]; 60 min
  Ln (% Remaining): -0.55
[1]; 120 min
  Ln (% Remaining): -0.94
Diabetic NOD mice [2]; 48h later (after stopping dosing)
  Blood glucose (Supplemental Figure 6A): 350 mg/dL and 370 mg/dL and 330 mg/dL
Diabetic NOD mice [2]; A week after resuming dosing
  Blood glucose (Supplemental Figure 6A): 119 mg/dL and 124 mg/dL and 131 mg/dL
Diabetic NOD mice [2]; Stoping dosing
  Blood glucose (Supplemental Figure 6A): 119 mg/dL and 109 mg/dL and 124 mg/dL
Diabetic NOD mice [2]; Week 1
  Blood glucose (Supplemental Figure 6A): 184 mg/dL and 200 mg/dL and 210 mg/dL
Diabetic NOD mice [2]; Week 2
  Blood glucose (Supplemental Figure 6A): 122 mg/dL and 116 mg/dL and 109 mg/dL
Diabetic NOD mice [2]; Week 3
  Blood glucose (Supplemental Figure 6A): 132 mg/dL and 147 mg/dL and 115 mg/dL
Diabetic NOD mice [2]; diabetic NOD mice, moderate hyperglycemia (200–250 mg/dL), once-daily oral, SAIB-Agar
  Effect on blood glucose: significantly reduced blood glucose levels within a week of administration; also recorded: normalized blood glucose level during an 11-week follow-up
Diabetic NOD mice [2]; diabetic NOD mice, SAIB-Agar formulation
  Time to normalized blood glucose: ≤ 2 weeks
Diabetic NOD mice [2]; diabetic NOD mice, Week 1, before treatment 230-251, mg/dL
  Blood glucose: 165 and 170 and 163 and 184 and 200 and 210 and 198 and 180 and 175
Diabetic NOD mice [2]; diabetic NOD mice, Week 2
  Blood glucose: 114 and 125 and 128 and 122 and 116 and 109 and 115
Diabetic NOD mice [2]; diabetic NOD mice, Week 3
  Blood glucose: 120 and 115 and 116 and 132 and 147 and 109 and 110
Diabetic NOD mice [2]; diabetic NOD mice, Week 4
  Blood glucose: 119 and 124 and 108 and 112 and 115 and 110
Diabetic NOD mice [2]; diabetic NOD mice, Week 5
  Blood glucose: 109 and 105 and 115 and 118 and 117
Diabetic NOD mice [2]; diabetic NOD mice, Week 6
  Blood glucose: 105 and 107 and 104 and 120 and 112 and 118
Diabetic NOD mice [2]; diabetic NOD mice, Week 7
  Blood glucose: 109 and 105 and 106 and 110 and 118 and 116
Diabetic NOD mice [2]; diabetic NOD mice, Week 8
  Blood glucose: 109 and 107 and 110 and 118 and 116
Diabetic NOD mice [2]; diabetic NOD mice, Week 9
  Blood glucose: 114 and 109 and 120 and 105 and 118 and 98
Diabetic NOD mice [2]; diabetic NOD mice, Week 10
  Blood glucose: 119 and 114 and 117 and 102 and 105 and 108
Diabetic NOD mice [2]; diabetic NOD mice, Week 11
  Blood glucose: 109 and 112 and 116 and 114 and 108 and 110
Diabetic NOD mice [2]; treated diabetic NOD mice, Supplemental Figure 6A
  Blood glucose after discontinuing for 48 hours and resuming dosing: resulted in hyperglycemia; also recorded: Euglycemia returned after resuming the WCDD301 dosing
Diabetic NOD mice [3]; Day 1
  Daily body weight (Figure 7F): 22.8 and 23.7 and 24.1 and 24.7
Diabetic NOD mice [3]; Day 2
  Daily body weight (Figure 7F): 23 and 23.9 and 24.3 and 25.3
Diabetic NOD mice [3]; Day 3
  Daily body weight (Figure 7F): 22.6 and 23.4 and 23.9 and 25.3
Diabetic NOD mice [3]; Day 7
  Daily body weight (Figure 7F): 22.3 and 23.1 and 23.5 and 24.7
Diabetic NOD mice [3]; Day 8
  Daily body weight (Figure 7F): 22.3 and 23.1 and 23.5 and 24.8
Diabetic NOD mice [3]; Day 9
  Daily body weight (Figure 7F): 22.6 and 23.4 and 23.9 and 24.8
Diabetic NOD mice [3]; Day 10
  Daily body weight (Figure 7F): 22.3 and 23.1 and 23.5 and 24.6
Diabetic NOD mice [3]; Day 11
  Daily body weight (Figure 7F): 22.3 and 23.1 and 23.5 and 25.1
Diabetic NOD mice [3]; Day 12
  Daily body weight (Figure 7F): 22.4 and 23.2 and 23.7 and 25.4
Diabetic NOD mice [3]; Day 13
  Daily body weight (Figure 7F): 22.5 and 23.3 and 23.8 and 25.3
Diabetic NOD mice [3]; Day 14
  Daily body weight (Figure 7F): 22.6 and 23.4 and 23.9 and 25.2
Diabetic NOD mice [3]; Day 15
  Daily body weight (Figure 7F): 22.9 and 23.8 and 24.2 and 24.7
Diabetic NOD mice [3]; Day 16
  Daily body weight (Figure 7F): 23.1 and 24 and 24.4 and 25.6
Diabetic NOD mice [3]; Day 17
  Daily body weight (Figure 7F): 23 and 23.9 and 24.3 and 25.3
Diabetic NOD mice [3]; Day 18
  Daily body weight (Figure 7F): 22.8 and 23.7 and 24.1 and 25.2
Diabetic NOD mice [3]; Day 19
  Daily body weight (Figure 7F): 22.4 and 23.2 and 23.7 and 25.1
Diabetic NOD mice [3]; Day 20
  Daily body weight (Figure 7F): 22.6 and 23.4 and 23.9 and 25.7
Diabetic NOD mice [3]; Day 21
  Daily body weight (Figure 7F): 22.5 and 23.3 and 23.8 and 25.1
Diabetic NOD mice [3]; Day 22
  Daily body weight (Figure 7F): 22.6 and 23.4 and 23.9 and 25.1
Diabetic NOD mice [3]; Day 23
  Daily body weight (Figure 7F): 22.4 and 23.2 and 23.7 and 25.1
Diabetic NOD mice [3]; Day 24
  Daily body weight (Figure 7F): 22.5 and 23.3 and 23.8 and 25.1
Diabetic NOD mice [3]; Day 25
  Daily body weight (Figure 7F): 22.5 and 23.3 and 23.8 and 25.2
Diabetic NOD mice [3]; Day 26
  Daily body weight (Figure 7F): 22.3 and 23.1 and 23.5 and 25.4
Diabetic NOD mice [3]; Day 27
  Daily body weight (Figure 7F): 22.3 and 23.1 and 23.5 and 25.2
Diabetic NOD mice [3]; Day 28
  Daily body weight (Figure 7F): 22.8 and 23.7 and 24.1 and 25.4
Diabetic NOD mice [3]; diabetic WCDD301-treated mice
  Body weight, daily monitoring: phenotypes similar to nondiabetic placebo-treated mice
